We go through 6 molecules from patent publication US20260184663A1, “INDENE COMPOUNDS, PHARMACEUTICAL COMPOSITIONS THEREOF, AND THEIR THERAPEUTIC APPLICATIONS” (NucMito Pharmaceuticals co. Ltd., priority 2022, published 2026).

Common to all, as to type: cell-based
One assay concerns SW480 (colon cancer). Briefly: Antiproliferative activity (CCK-8 cell viability), SW480. Conditions: Homo sapiens, 72 h, read-out: Antiproliferative activity in cancerous cells, SW480 (inhibition of cell growth); for inhibition at 3.3 µM: Compound concentration: 3.3 μM; for inhibition at 10 µM: Compound concentration: 10 μM; for inhibition at 30 µM: Compound concentration: 30 μM. The method, boiled down:
(§1)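 Growth inhibition graded in bands from percent viability against DMSO vehicle, read as CCK-8 absorbance at 450 nm. Compound tested at 3.3, 10 or 30 μM for 72 h, 37 °C; media contained 10% FBS: DMEM for HepG2/SW480, MEM for HeLa, F-12K for A549.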

Assay [1] deals with A431 (epidermoid carcinoma). Briefly: Antiproliferative activity (CCK-8 cell viability), A431. Conditions: Homo sapiens, 72 h, read-out: Antiproliferative activity in cancerous cells, A431 (inhibition of cell growth); for inhibition at 3.3 µM: A-431, Compound concentration: 3.3 μM; for inhibition at 10 µM: A-431, Compound concentration: 10 μM; for inhibition at 30 µM: A-431, Compound concentration: 30 μM. The essentials:
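This growth inhibition assay used A431 cells maintained in Dulbecco's modified Eagle's medium plus 10% fetal bovine serum. Cells were seeded in 96-well plates, treated with compound for 72 h at 37° C., and then given 10 μL CCK-8 solution. After a further 4 h, absorbance was read at 450 nm.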

Assay [2] relates to A549 (lung adenocarcinoma). The assay is described as follows: Antiproliferative activity (CCK-8 cell viability), A549. Conditions: Homo sapiens, 72 h, read-out: Antiproliferative activity in cancerous cells, A549 (inhibition of cell growth); for inhibition at 3.3 µM: Compound concentration: 3.3 μM; for inhibition at 10 µM: Compound concentration: 10 μM; for inhibition at 30 µM: Compound concentration: 30 μM. The method, boiled down:
as §1

Assay [3] relates to MDA-MB-231 (breast cancer). Briefly: Antiproliferative activity (CCK-8 cell viability), MDA-MB-231. Conditions: Homo sapiens, 72 h, read-out: Antiproliferative activity in cancerous cells, MDA-MB-231 (inhibition of cell growth); for inhibition at 3.3 µM: Compound concentration: 3.3 μM; for inhibition at 10 µM: Compound concentration: 10 μM; for inhibition at 30 µM: Compound concentration: 30 μM. The essentials:
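Growth inhibition of human MDA-MB-231 breast cancer cells was assessed with a Cell Counting Kit-8. Cells cultured in DMEM plus 10% FBS were seeded at 2,000-5,000 cells/well, treated after attachment, and kept 72 h at 37° C. CCK-8 solution (10 μL) was added for 4 h, and absorbance at 450 nm was compared with DMSO-treated controls.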

Assay [4] deals with B16F10 (malignant melanoma). Briefly: Antiproliferative activity (CCK-8 cell viability), B16F10. Conditions: Mus musculus, 72 h, read-out: Antiproliferative activity in cancerous cells, B16F10 (inhibition of cell growth); for inhibition at 3.3 µM: B16-F10, Compound concentration: 3.3 μM; for inhibition at 10 µM: B16-F10, Compound concentration: 10 μM; for inhibition at 30 µM: B16-F10, Compound concentration: 30 μM. The essentials:
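Cell growth inhibition was measured in B16F10 malignant melanoma cells with a Cell Counting Kit-8 viability assay. Cells were maintained in DMEM plus 10% fetal bovine serum, seeded at 2,000-5,000 cells/well in 96-well plates, and treated for 72 h at 37° C. Viability was expressed relative to DMSO-treated vehicle control wells.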

Another assay concerns HeLa (cervical cancer). The assay is described as follows: Antiproliferative activity (CCK-8 cell viability), HeLa. Conditions: Homo sapiens, 72 h, read-out: Antiproliferative activity in cancerous cells, HELA (inhibition of cell growth); for inhibition at 3.3 µM: Compound concentration: 3.3 μM; for inhibition at 10 µM: Compound concentration: 10 μM; for inhibition at 30 µM: Compound concentration: 30 μM. The essentials: as §1

The next assay concerns HepG2 (liver cancer). Briefly: Antiproliferative activity (CCK-8 cell viability), HepG2. Conditions: Homo sapiens, 72 h, read-out: Antiproliferative activity in cancerous cells, HepG2 (inhibition of cell growth); for inhibition at 3.3 µM: Compound concentration: 3.3 μM; for inhibition at 10 µM: Compound concentration: 10 μM; for inhibition at 30 µM: Compound concentration: 30 μM. The essentials: as §1

The structures appear in SMILES notation. Bounds are passed on as bounds.

By inhibition is commonly meant the share of the control response that was lost under treatment. `CCOCc1ccc(/C=C2/C(C)=C(CC(=O)O)c3cc(F)ccc32)cc1` [D10, (Z)-2-(1-(4-(Ethoxymethyl)benzylidene)-5-fluoro-2-methyl-1H-inden-3-yl)acetic acid]: the inhibition at 3.3 µM was 30 to 50% in the assay on SW480 (colon cancer); no less than 50% in assay [1]; 30 to 50% in assay [2]; less than 30% in assay [3]; 30 to 50% in assay [4]; 30 to 50% with HeLa (cervical cancer). Also, the inhibition at 3.3 µM in the assay with HepG2 (liver cancer) is less than 30%. Besides, the inhibition at 10 µM was 30 to 50% in the assay on SW480 (colon cancer); no less than 50% in assay [1]; 30 to 50% in assay [2]; less than 30% in assay [3]; 30 to 50% in assay [4]; no less than 50% in the assay with HeLa (cervical cancer). In addition, the inhibition at 10 µM in the assay with HepG2 (liver cancer) was less than 30%. The inhibition at 30 µM in the assay on SW480 (colon cancer) is 30 to 50%; in assay [1] it was no less than 50%; in assay [2] it was 30 to 50%; in assay [3], 30 to 50%; in assay [4], 30 to 50%; in the assay on HeLa (cervical cancer), no less than 50%. Further, the inhibition at 30 µM in the assay with HepG2 (liver cancer) fell in the range of 30 to 50%.

Take `CC1=C(CC(=O)O)c2cc(Cl)ccc2/C1=C/c1ccc(Oc2ccc(F)cc2)cc1` [E41, (E)-2-(5-Chloro-1-(4-(4-fluorophenoxy)benzylidene)-2-methyl-1H-inden-3-yl)acetic acid]: the inhibition at 3.3 µM was 30 to 50% with SW480 (colon cancer); no less than 50% in assay [1]; less than 30% in assay [2]; less than 30% in assay [3]; less than 30% in assay [4]; less than 30% with HeLa (cervical cancer). Besides, in the assay on HepG2 (liver cancer), the inhibition at 3.3 µM was less than 30%. For the same molecule, the inhibition at 10 µM is no less than 50% in the assay on SW480 (colon cancer); no less than 50% in assay [1]; 30 to 50% in assay [2]; no less than 50% in assay [3]; no less than 50% in assay [4]; no less than 50% in the assay with HeLa (cervical cancer). In addition, in the assay with HepG2 (liver cancer), the inhibition at 10 µM was no less than 50%. The inhibition at 30 µM (with SW480 (colon cancer); in assay [1]; in assay [2]; in assay [3]; in assay [4]; with HeLa (cervical cancer)) was no less than 50% in each case. For the same molecule, the inhibition at 30 µM in the assay with HepG2 (liver cancer) was no less than 50%.

As for `CC1=C(CC(=O)O)c2cc(Cl)ccc2/C1=C\c1ccc(Oc2ccc(F)c(F)c2)cc1` [C76, (Z)-2-(5-Chloro-1-(4-(3,4-difluorophenoxy)benzylidene)-2-methyl-1H-inden-3-yl)acetic acid], the inhibition at 3.3 µM is less than 30% in the assay with SW480 (colon cancer); no less than 50% in assay [1]; 30 to 50% in assay [2]; less than 30% in assay [3]; 30 to 50% in assay [4]; 30 to 50% with HeLa (cervical cancer). In addition, the inhibition at 3.3 µM in the assay with HepG2 (liver cancer) is less than 30%. The inhibition at 10 µM (in the assay with SW480 (colon cancer); in assay [1]; in assay [2]; in assay [3]; in assay [4]; in the assay with HeLa (cervical cancer)) was no less than 50% each time. In addition, the inhibition at 10 µM with HepG2 (liver cancer) is no less than 50%.

Regarding `CCc1ccc2c(c1)C(CC(=O)O)=C(C)/C2=C/c1ccc(COCc2ccc(F)cc2)cc1` [B107, (Z)-2-(5-Ethyl-1-(4-(((4-fluorobenzyl)oxy)methyl)benzylidene)-2-methyl-1H-inden-3-yl)acetic acid], the inhibition at 3.3 µM is no less than 50% in the assay with SW480 (colon cancer); no less than 50% in assay [1]; 30 to 50% in assay [2]; less than 30% in assay [3]; less than 30% in assay [4]; less than 30% in the assay on HeLa (cervical cancer). Further, the inhibition at 3.3 µM in the assay on HepG2 (liver cancer) is less than 30%. Also, the inhibition at 10 µM was no less than 50% in the assay on SW480 (colon cancer); 30 to 50% in assay [1]; no less than 50% in assay [2]; 30 to 50% in assay [3]; 30 to 50% in assay [4]; no less than 50% in the assay on HeLa (cervical cancer). Besides, the inhibition at 10 µM with HepG2 (liver cancer) was less than 30%.

Regarding `CC1=C(CC(=O)O)c2cc(Br)ccc2/C1=C\c1ccc(COCc2ccc(Cl)cc2)cc1` [B120, (Z)-2-(5-Bromo-1-(4-(((4-chlorobenzyl)oxy)methyl)benzylidene)-2-methyl-1H-inden-3-yl)acetic acid], the inhibition at 3.3 µM with SW480 (colon cancer) was less than 30%; in assay [1], no less than 50%; in assay [2] it was 30 to 50%; in assay [3], less than 30%; in assay [4], less than 30%; in the assay with HeLa (cervical cancer), no less than 50%. The inhibition at 3.3 µM in the assay with HepG2 (liver cancer) is 30 to 50%. Moreover, the inhibition at 10 µM was no less than 50% in the assay with SW480 (colon cancer); no less than 50% in assay [1]; no less than 50% in assay [2]; less than 30% in assay [3]; less than 30% in assay [4]; no less than 50% in the assay with HeLa (cervical cancer). Besides, the inhibition at 10 µM in the assay on HepG2 (liver cancer) is no less than 50%.

Regarding `CC1=C(CC(=O)O)c2cc(F)ccc2/C1=C\c1cccc(C(O)c2ccccc2)c1` (stereo not drawn) [C310, (Z)-2-(5-Fluoro-1-(3-(hydroxy(phenyl)methyl)benzylidene)-2-methyl-1H-inden-3-yl)acetic acid], the inhibition at 3.3 µM was no less than 50% in the assay on SW480 (colon cancer); no less than 50% in assay [1]; 30 to 50% in assay [2]; less than 30% in assay [3]; less than 30% in assay [4]; no less than 50% in the assay on HeLa (cervical cancer). Moreover, in the assay with HepG2 (liver cancer), the inhibition at 3.3 µM fell in the range of 30 to 50%. Also, the inhibition at 10 µM was no less than 50% in the assay with SW480 (colon cancer); 30 to 50% in assay [1]; 30 to 50% in assay [2]; no less than 50% in assay [3]; 30 to 50% in assay [4]; no less than 50% in the assay with HeLa (cervical cancer). The inhibition at 10 µM in the assay on HepG2 (liver cancer) is no less than 50%. In addition, the inhibition at 30 µM (in the assay with SW480 (colon cancer); in assay [1]; in assay [2]; in assay [3]; in assay [4]; in the assay on HeLa (cervical cancer)) was no less than 50% in each case. For the same molecule, in the assay on HepG2 (liver cancer), the inhibition at 30 µM is no less than 50%.
